# Test results taken from US20070122907A1, “Orchid culturing method” (priority 2005, published 2007).
# Experiments:
# Dendrobium = settings: application to the mature pseudobulbs, not the developing ones; cited from earlier work
# Phalaenopsis plants = test: Induction of spiking in potted Phalaenopsis by spraying, number of inflorescences per plant; format: in vivo; settings: spray 1000 ppm, 0.1% Zipper, 1% DMSO, 100 plants
# Excerpt: Growing conditions for the plants throughout the whole greenhouse stay are the same, except for the above discussed variations in light and temperature. Preferably this means that the plants are potted in pots with a diameter of 10-20 cm, with a growing medium of bark, coconut, Styrofoam, sphagnum moss and turf. Preferably they are stored on table-high racks, which facilitates handling. Light intensity on the surface of the pot is 3000-15000 lux (see Schapendonlk, A.H.C.M., “Belichting Phalaenopsis”, PT-Project 12170, productverslag, Productschap Tuinbouw). Normal daylight is maintained, but preferably in wintertime a lights on:lights off regime of 14:10 hours is used. Watering is preferably automated and is taken care of by a sprinkler system or any other spraying system, an ebb and flow system, via gutters running along the racks, or by submerging the pots in a water basin Nutrients and/or fertiliser are added to the water on a regular basis (EC 0,5-2, NPK 20-20-20). See also ook “Cultivation Guidelines Phalaenopsis Pot Plants, supra.
# In June 2004 three groups of Phalaenopsis plants have been induced 6 months after potting. For testing 100 plants were treated and 100 non-treated controls were used per variety. Both groups of plants were cultured as described above. […] The results in Table 1 show the number of inflorescences per plant for the different test groups.
# Phalaenopsis = settings: cited from earlier work
structure (smiles),measurement,setting,value
"c1ccc(CNc2ncnc3nc[nH]c23)cc1 [6-BA-P, 6-benzylaminopurine]",triggering of spiking,Dendrobium,shown to trigger spiking
same,Average stemcount treated,"Phalaenopsis plants; variety Anthura Malaga, untreated 1.23",3.61
same,Average stemcount treated,"Phalaenopsis plants; variety Brother John Red Delight, untreated 1.13",3.20
same,Average stemcount treated,"Phalaenopsis plants; variety Dutch Lady, untreated 1.58",3.84
same,Average stemcount treated,"Phalaenopsis plants; variety Golden Treasure, untreated 1.44",2.97
same,Average stemcount treated,"Phalaenopsis plants; variety Lippe Flair 344, untreated 1.32",3.38
same,Average stemcount treated,"Phalaenopsis plants; variety Maliby Leopard, untreated 1.51",3.12
same,induction of off-season spiking,Phalaenopsis,unable to induce off-season spiking
